Source: patent US20050239791A1, “Substituted 1-heteroaryl-4-substituted piperazine and piperidine analogues” (priority 2004, published 2005)
Read-outs that look alike come from different tables or passages of the source.

Target: MCH receptor (Macaca fascicularis, UniProt A0A2K5VT41)
Test: Calcium mobilization assay (Example 6)
Assay type: cell-based, Cynomolgus macaque
Text: This Example illustrates a representative functional assay for monitoring the response of cells expressing melanin concentrating hormone receptors to melanin concentrating hormone. This assay can also be used to determine if test compounds act as agonists or antagonists of melanin concentrating hormone receptors.
Chinese Hamster Ovary (CHO) cells (American Type Culture Collection; Manassas, Va.) are stably transfected with the MCH expression vector via calcium phosphate precipitation, and are grown to a density of 15,000 cells/well in FALCON™ black-walled, clear-bottomed 96-well plates (#3904, BECTON-DICKINSON, Franklin Lakes, N.J.) in Ham's F12 culture medium (MEDIATECH, Herndon, Va.) supplemented with 10% fetal bovine serum, 25 mM HEPES and 500 μg/mL (active) G418. Prior to running the assay, the culture medium is emptied from the 96 well plates. […]
Fluorescence response is monitored upon the addition of either […] or test compound by a FLIPR™ plate reader (Molecular Devices, Sunnyvale, Calif.) by excitation at 480 nm and emission at 530 nm.
In order to measure the ability of a test compound to antagonize the response of cells expressing MCH receptors to MCH, the EC50 of MCH is first determined. […]
Test compounds are dissolved in DMSO, diluted in 20 μL KRH buffer, and added to cells prepared as described above. […] Just prior to determining the fluorescence response, 100 μL human MCH diluted in KRH buffer to 2×EC50 is automatically added by the FLIPR instrument to each well of the 96 well plate for a final sample volume of 200 μL and a final MCH concentration of EC50. […] Typically, antagonists of the MCH receptor decrease the fluorescence response by about 20%, preferably by about 50%, and most preferably by at least 80% as compared to matched controls. IC50 values for MCHR antagonists are determined using SIGMAPLOT software (SPSS Inc., Chicago, Ill.) and standard techniques. […]

Sequence of MCH receptor (A0A2K5VT41 70-422): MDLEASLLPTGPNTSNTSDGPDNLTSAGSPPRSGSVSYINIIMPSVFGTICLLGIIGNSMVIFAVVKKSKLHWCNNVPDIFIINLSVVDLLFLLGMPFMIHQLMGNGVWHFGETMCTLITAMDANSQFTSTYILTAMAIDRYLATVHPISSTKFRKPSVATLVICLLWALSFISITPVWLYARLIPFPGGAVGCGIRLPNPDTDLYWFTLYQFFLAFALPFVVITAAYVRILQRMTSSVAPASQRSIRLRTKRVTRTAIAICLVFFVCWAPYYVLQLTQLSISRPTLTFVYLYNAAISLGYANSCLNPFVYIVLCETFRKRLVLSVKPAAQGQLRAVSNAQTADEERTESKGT

Row | SMILES | EC50 (calcium mobilization (FLIPR, Fluo-3) in CHO cells stably transfected with the MCH expression vector, read-out: EC50, determined as described in Example 6) | EC50
1 | Cc1nccc(CN2CCC(O)(c3ccc(Cl)c(C(F)(F)F)c3)CC2)c1C [Example 3, 4-(4-chloro-3-trifluoromethylphenyl)-1-(2,3-dimethyl-pyridin-4-ylmethyl)-piperidin-4-ol] | < 1000 nM | 
2 | COc1cc(N2CCN(C(C)c3ccnc4ccccc34)CC2)ccc1Cl (stereo not drawn) [Example 2, 4-{1-[4-(4-chloro-3-methoxyphenyl)piperazin-1-yl]ethyl}quinoline] |  | < 1000 nM
3 | COc1cc(N2CCN(C(C)c3ccnc(C)c3C)CC2)ccc1Cl (stereo not drawn) [Example 1, 1-(4-chloro-3-methoxyphenyl)-4-[1-(2,3-dimethylpyridin-4-yl)-ethyl]-piperazine] |  | < 1000 nM
